The record followed here is ChEMBL document CHEMBL1145883, “Lysine sulfonamides as novel HIV-protease inhibitors: optimization of the Nepsilon-acyl-phenyl spacer” (Bioorg Med Chem Lett, 2003).

Test [1] has as its target Human immunodeficiency virus type 1 protease (Human immunodeficiency virus 1, UniProt Q72874). Kind of test: Inhibitory activity against HIV-1 protease.
For test [2], the system named is Human immunodeficiency virus 1. Kind of test: Antiviral activity. The class given is functional, organism-based.

`Cc1ccc(S(=O)(=O)N(CC(C)C)[C@@H](CCCCNC(=O)N(Cc2ccccc2)Cc2ccccc2)C(=O)O)cc1` returned a Ki in test [1] of 0.008 µM.

In test [1], `Cc1ccc(S(=O)(=O)N(CC(C)C)[C@@H](CCCCNC(=O)CCc2ccccc2)C(=O)O)cc1` showed an inhibitory constant (Ki) of 0.0069 µM. In test [1], `Cc1ccc(S(=O)(=O)N(CC(C)C)[C@@H](CCCCNC(=O)NCc2ccccc2)C(=O)O)cc1` showed a Ki of 0.032 µM. With `Cc1ccc(S(=O)(=O)N(CC(C)C)[C@H](CO)CCCCNC(=O)CN(Cc2cccc(N)c2)c2ccccc2)cc1`, in test [2], the EC50 is 3 µM. This compound also came in with an inhibitory constant (Ki) in test [1] of 0.0076 µM.

In test [1], `Cc1ccc(S(=O)(=O)N(CC(C)C)[C@@H](CCCCNC(=O)c2ccccc2)C(=O)O)cc1` came in with a Ki greater than 0.3 µM. As to `CC(C)CN([C@H](CO)CCCCNC(=O)CN(Cc1ccc(F)cc1)c1ccccc1)S(=O)(=O)c1ccc(N)cc1`, the response in test [2] was half-maximal at 1 µM (EC50). The same compound registered a Ki in test [1] of 0.0023 µM. On the same counts, the results for `COc1ccc(CN(CC(=O)NCCCC[C@@H](CO)N(CC(C)C)S(=O)(=O)c2ccc(C)cc2)c2ccccc2)cc1OC` are 1.3 µM and 0.0035 µM. On the same counts, the results for `Cc1ccc(S(=O)(=O)N(CC(C)C)[C@H](CO)CCCCNC(=O)CN(Cc2cccc([N+](=O)[O-])c2)c2ccccc2)cc1` are 0.73 µM and 0.0014 µM. `CC(C)CN([C@H](CO)CCCCNC(=O)CN(Cc1ccc([N+](=O)[O-])cc1)c1ccccc1)S(=O)(=O)c1ccc(N)cc1` returned an EC50 in test [2] of 0.54 µM. In test [1], this compound showed an inhibition constant (Ki) of 0.00059 µM. Compound `Cc1ccc(S(=O)(=O)N(CC(C)C)[C@H](CO)CCCCNC(=O)CN(c2ccccc2)C(C)C)cc1` had a 50% effective concentration (EC50) in test [2] of 1.1 µM. This compound had an inhibition constant (Ki) in test [1] of 0.016 µM. For `Cc1ccc(S(=O)(=O)N(CC(C)C)[C@@H](CCCCNC(=O)C2CC2c2ccccc2)C(=O)O)cc1` (stereo partly specified), in test [1], the Ki was greater than 0.3 µM. With `CC(C)CN([C@H](CO)CCCCNC(=O)CN(Cc1cccc([N+](=O)[O-])c1)c1ccccc1)S(=O)(=O)c1ccc(N)cc1`, in test [2], a half-maximal response (EC50) required 0.339 µM. Further, the Ki in test [1] was 0.0012 µM. As to `COc1ccc(CN(CC(=O)NCCCC[C@@H](CO)N(CC(C)C)S(=O)(=O)c2ccc(N)cc2)c2ccccc2)cc1OC`, the midpoint of the response in test [2], the EC50, lay at 0.366 µM. Besides, the Ki in test [1] worked out at 0.0029 µM. With `Cc1ccc(S(=O)(=O)N(CC(C)C)[C@@H](CCCCNC(=O)CCCc2ccccc2)C(=O)O)cc1`, the Ki in test [1] was greater than 0.3 µM. The same measure, in the same setting: the value for `Cc1ccc(S(=O)(=O)N(CC(C)C)[C@@H](CCCCNC(=O)N(C)Cc2ccccc2)C(=O)O)cc1` was 0.055 µM. On to `Cc1ccc(S(=O)(=O)N(CC(C)C)[C@H](CO)CCCCNC(=O)CN(c2ccccc2)c2ccccc2)cc1`, for which, in test [2], it took 6.7 µM to reach a half-maximal effect (EC50). The compound further had a Ki in test [1] of 0.012 µM. With `COc1ccc(CN(CC(=O)NCCCC[C@@H](CO)N(CC(C)C)S(=O)(=O)c2ccc(N)cc2)c2ccccc2)cc1`, the Ki in test [1] was found to be 0.0024 µM. As for `Cc1ccc(S(=O)(=O)N(CC(C)C)[C@@H](CCCCNC(=O)OCc2ccccc2)C(=O)O)cc1`, in test [1], the Ki is greater than 0.3 µM. Compound `Cc1ccc(S(=O)(=O)N(CC(C)C)[C@H](CO)CCCCNC(=O)CN(Cc2ccccc2)c2ccccc2)cc1` yielded an EC50 in test [2] of 4.2 µM. Further, the Ki in test [1] is 0.0076 µM. On the same counts, the results for `COc1ccc(CN(CC(=O)NCCCC[C@@H](CO)N(CC(C)C)S(=O)(=O)c2ccc(C)cc2)c2ccccc2)cc1` are greater than 10 µM and 0.0073 µM. In test [1], `Cc1ccc(S(=O)(=O)N(CC(C)C)[C@@H](CCCCNC(=O)CN(C)c2ccccc2)C(=O)O)cc1` registered a Ki of 0.012 µM. On the same count and under the same terms, for `Cc1ccc(S(=O)(=O)N(CC(C)C)[C@@H](CCCCNC(=O)Cc2ccccc2)C(=O)O)cc1` the value was greater than 0.3 µM.

As to `Cc1ccc(S(=O)(=O)N(CC(C)C)[C@H](CO)CCCCNC(=O)CN(Cc2ccccc2[N+](=O)[O-])c2ccccc2)cc1`, the EC50 in test [2] worked out at 3.5 µM. Moreover, the affinity in test [1], expressed as Ki, was 0.0039 µM. On to `Cc1ccc(S(=O)(=O)N(CC(C)C)[C@@H](CCCCNC(=O)[C@@H](N)Cc2ccccc2)C(=O)O)cc1`, for which affinity in test [1] was put at a Ki of 0.0015 µM. Same read-out and setting: the value for `Cc1ccc(S(=O)(=O)N(CC(C)C)[C@@H](CCCCNC(=O)C(c2ccccc2)c2ccccc2)C(=O)O)cc1` was 0.171 µM; that for `Cc1ccc(S(=O)(=O)N(CC(C)C)[C@@H](CCCCNC(=O)CS(=O)(=O)c2ccccc2)C(=O)O)cc1` was 0.02 µM. As to `COc1cccc(CN(CC(=O)NCCCC[C@@H](CO)N(CC(C)C)S(=O)(=O)c2ccc(C)cc2)c2ccccc2)c1OC`, in test [2], the half-maximal effective concentration (EC50) was 0.76 µM. In addition, the Ki in test [1] stood at 0.0024 µM.

`Cc1ccc(S(=O)(=O)N(CC(C)C)[C@H](CO)CCCCNC(=O)CN(CCc2ccccc2)c2ccccc2)cc1` came in with a 50% effective concentration (EC50) in test [2] greater than 10 µM. In test [1], this compound came in with a Ki of 0.052 µM. Regarding `COc1cccc(CN(CC(=O)NCCCC[C@@H](CO)N(CC(C)C)S(=O)(=O)c2ccc(N)cc2)c2ccccc2)c1OC`, the concentration giving a half-maximal response (EC50) in test [2] came out at 0.34 µM.

In turn, `CN[C@@H](Cc1ccccc1)C(=O)NCCCC[C@@H](C(=O)O)N(CC(C)C)S(=O)(=O)c1ccc(C)cc1` returned an inhibitory constant (Ki) in test [1] of 0.0021 µM. In test [1], `Cc1ccc(S(=O)(=O)N(CC(C)C)[C@@H](CCCCNC(=O)C(Cc2ccccc2)C(C)(C)C)C(=O)O)cc1` (stereo partly specified) returned a Ki greater than 0.3 µM.

With `CC(C)CN([C@H](CO)CCCCNC(=O)CN(Cc1cccc(N)c1)c1ccccc1)S(=O)(=O)c1ccc(N)cc1`, the EC50 in test [2] was determined as 0.524 µM. Moreover, the Ki in test [1] is 0.0069 µM. On the same counts, the results for `CC(C)CN([C@H](CO)CCCCNC(=O)CN(Cc1cccc(F)c1)c1ccccc1)S(=O)(=O)c1ccc(N)cc1` are 1.1 µM and 0.0011 µM. Compound `Cc1ccc(S(=O)(=O)N(CC(C)C)[C@@H](CCCCNC(=O)C(=O)Cc2ccccc2)C(=O)O)cc1` had a Ki in test [1] of 0.014 µM. In the case of `Cc1ccc(S(=O)(=O)N(CC(C)C)[C@@H](CCCCNC(=O)CNc2ccccc2)C(=O)O)cc1`, the inhibition constant Ki in test [1] worked out at 0.0078 µM. The same measure, in the same setting: for `Cc1ccc(S(=O)(=O)N(CC(C)C)[C@@H](CCCCNC(=O)COc2ccccc2)C(=O)O)cc1` the value was 0.018 µM; for `CC(C)CN([C@H](CO)CCCCNC(=O)CN(Cc1ccccc1)c1ccccc1)S(=O)(=O)c1ccc(N)cc1`, 0.0024 µM. Consider `Cc1ccc(S(=O)(=O)N(CC(C)C)[C@@H](CCCCNC(=O)CSc2ccccc2)C(=O)O)cc1`, for which the affinity in test [1] corresponds to a Ki of 0.018 µM. Take `Cc1ccc(S(=O)(=O)N(CC(C)C)[C@@H](CCCCNC(=O)[C@@H](O)Cc2ccccc2)C(=O)O)cc1`: the affinity in test [1] corresponds to a Ki of 0.0062 µM. As to `CC(C)CN([C@H](CO)CCCCNC(=O)CN(Cc1ccccc1[N+](=O)[O-])c1ccccc1)S(=O)(=O)c1ccc(N)cc1`, in test [2], the EC50 was 0.341 µM. In addition, the affinity in test [1] corresponds to a Ki of 0.0015 µM. On the same counts, the results for `CC(C)CN([C@H](CO)CCCCNC(=O)CN(Cc1ccccc1F)c1ccccc1)S(=O)(=O)c1ccc(N)cc1` are 2.2 µM and 0.0023 µM. Compound `Cc1ccc(S(=O)(=O)N(CC(C)C)[C@@H](CCCCNC(=O)CN(Cc2ccccc2)c2ccccc2)C(=O)O)cc1` had a Ki in test [1] of 0.00072 µM. The same measure, in the same setting: the value for `Cc1ccc(S(=O)(=O)N(CC(C)C)[C@@H](CCCCNC(=O)/C=C/c2ccccc2)C(=O)O)cc1` was greater than 0.3 µM.
